According to the NIST ThermoML archive (doi:10.1016/j.tca.2015.11.010):
± gives the expanded uncertainty stated by the source.

Assay: activity coefficient (dimensionless); of the first substance listed, at infinite dilution; xn = mol fraction of the nth substance listed
Details: 298.15 K; 238 kPa; Liquid; Chromatography; x1 = 0

Row | activity coefficient | Compound
1 | 23 ± 2.1 | C=CCCCCC=C [1,7-octadiene] + CNC=O
2 | 22.3 ± 2.1 | Cc1ccc(C(C)C)cc1 [1-(1-methylethyl)-4-methylbenzene] + CNC=O
3 | 4.8 ± 0.4 | c1ccccc1 [benzene] + CNC=O
4 | 42.3 ± 3.3 | C1CCCCCCC1 [cyclooctane] + CNC=O
5 | 194 ± 9.1 | CCCCCCCCCC [decane] + CNC=O
6 | 4 ± 0.3 | Fc1ccccc1 [fluorobenzene] + CNC=O
7 | 60.5 ± 4.8 | CCCCCCC [heptane] + CNC=O
8 | 38.6 ± 7.5 | CCCCCC [hexane] + CNC=O
9 | 26.7 ± 3.7 | c1ccc2ccccc2c1 [naphthalene] + CNC=O
10 | 122 ± 6.3 | CCCCCCCCC [nonane] + CNC=O
11 | 83.9 ± 4.5 | CCCCCCCC [octane] + CNC=O
12 | 318 ± 32 | CCCCCCCCCCC [undecane] + CNC=O

Row | Compound | activity coefficient
13 | Cc1ccccc1C [1,2-dimethylbenzene] + CNC=O | 9.8 ± 1.1
14 | Cc1cccc(C)c1 [1,3-dimethylbenzene] + CNC=O | 10.8 ± 0.7
15 | Cc1ccc(C)cc1 [1,4-dimethylbenzene] + CNC=O | 10.4 ± 0.9
16 | C=CC1CC=CCC1 (centres undefined) [4-ethenylcyclohexene] + CNC=O | 16.6 ± 1.9
17 | Brc1ccccc1 [bromobenzene] + CNC=O | 6.3 ± 0.5
18 | Clc1ccccc1 [chlorobenzene] + CNC=O | 5.2 ± 0.6
19 | Cc1ccccc1 [toluene] + CNC=O | 7 ± 0.6
